{"source": "patent US20240197738A1", "about": "“COMPOUND 7AI IN TREATING EWING SARCOMA BY INHIBITING OTUD7A” (The University of North Carolina at Chapel Hill, priority 2021, published 2024)", "type_in_all_cases": "cell-based, human", "key": {"[1]": {"tested_on": "foreskin fibroblast (FF) cells", "assay": "Cell viability (MTT) assay, foreskin fibroblast", "conditions": "72 hrs (FIG. 5S)", "method": "(§1) 2,000 indicated cells were seeded in each well of 96-well plates for MTT assays to monitor cell viability at indicated time periods using a method adapted from https://www.thermofisher.com/us/en/home/references/protocols/cell-culture/mtt-assay-protocol/vybrant-mtt-cell-proliferation-assay-kit.html. Briefly, at indicated time points post-cell seeding, 10 μL MTT solution was added into each well and incubated in the culture incubator (37° C. with 5% CO2) for 4 hrs. Then medium was removed and 100 μL DMSO was added into each well to dissolve the formazan crystal and incubated for 10 min at 37° C. After thorough mixing, absorbance at 540 nm was measured using the BioTek Cytation 5 Cell Imaging reader."}, "[2]": {"tested_on": "EWS894 cells", "assay": "Cell viability (MTT) assay, EWS894", "conditions": "EWS894, 3-day treatment", "method": "as §1"}, "[3]": {"tested_on": "EWS-FLI1 mRNA", "assay": "RT-PCR of EWS-FLI1 mRNA levels", "conditions": "7Ai treatment", "method": "Cells were isolated by dissociation with 0.05% Trypsin, followed by media quenching. The cells were spun down at 300×rcf for 5 minutes. The media was aspirated, the pellet was suspended with 1×PBS, and then the cells were spun down again. The PBS was aspirated. RNA extraction was performed with an RNA extraction kit (BioBasic BS584). The final elution step was done with 50 μL of RNAse-free water. The […] with the NanoDrop OneC (Thermo Fisher Scientific). Three biological replicates were performed for RNA extraction. Quartile analysis was done to exclude outliers and significance was determined by one-way ANOVA tests."}}, "data": [{"compound": "Cn1nccc1-c1cc(-c2ccnn2C)n2nc(C(=O)Nc3cnn(Cc4c(Cl)cccc4Cl)c3)cc2n1", "note": "[7Ai]", "values": [{"measurement": "proliferation (cell viability)", "setting": "[1]", "result": "neglectable effects"}, {"measurement": "proliferation (cell viability)", "setting": "[2]", "result": "reduced proliferation"}, {"measurement": "EWS-FLI1 mRNA levels", "setting": "[3]", "result": "did not affected EWS-FLI1 mRNA levels"}]}]}
